Source: article PMC12775434, “Ultra-large virtual screening unveils potent agonists of the neuromodulatory orphan receptor GPR139” (Nature Communications, 2025)
Several values for one entry are separate records, joined by “and”; a condition that tells them apart may be missing. Equal values may be shown once. Read-outs that look alike come from different tables or passages of the source.

Assays:
GPR139 [1] = target: T1, GPR139 (Homo sapiens, UniProt Q6DWJ6); assay: Ca2+ mobilization assay, antagonist mode (EC80 800 nM Lundbeck Cmp 1a after 20 min preincubation), GPR139-CHOk1; type: cell-based
T1 sequence (Q6DWJ6 1-353): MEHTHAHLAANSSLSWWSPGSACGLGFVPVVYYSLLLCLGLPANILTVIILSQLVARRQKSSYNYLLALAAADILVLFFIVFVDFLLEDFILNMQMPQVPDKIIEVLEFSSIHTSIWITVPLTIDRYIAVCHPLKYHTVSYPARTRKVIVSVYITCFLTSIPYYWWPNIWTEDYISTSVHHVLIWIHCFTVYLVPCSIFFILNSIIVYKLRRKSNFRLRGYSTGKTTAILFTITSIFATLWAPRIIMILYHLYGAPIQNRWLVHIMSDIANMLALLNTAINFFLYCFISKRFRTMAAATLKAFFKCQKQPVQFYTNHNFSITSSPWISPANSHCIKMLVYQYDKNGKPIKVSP
How it was run: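 Fluo-4-loaded GPR139-CHOk1 cells in HEPES-buffered HBSS (pH 7.4, 2.5 mM probenecid) given test compounds at 10 µM, then after 20 min challenged with 800 nM Lundbeck Cmp 1a (EC80). Calcium fluorescence read at 37 °C, 485/525 nm.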

GPR139 [2] = target: T1, GPR139; assay: Inositol monophosphate (IP1) accumulation assay, GPR139-CHOk1; type: cell-based; conditions: for Emax: normalized to Lundbeck Cmp 1a
Experimental: Primary screening and pharmacological characterization of compounds were performed using a CHO-K1 cell line that stably expresses human GPR139 (GPR139-CHOk1). The GPR139-CHOk1 cell line was kindly provided by H. Lundbeck A/S, Denmark[24]. GPR139-CHOk1 cells were grown in Ham’s F-12 Kaighn’s Modification Medium (ThermoFisher #21127030) supplemented with 10% dialyzed fetal bovine serum (US origin, ThermoFisher #26400044), 100 units/mL Penicillin-Streptomycin (ThermoFisher #15140122), and 1 mg/mL Geneticin (ThermoFisher #11811031). […] M1R-CHOk1 cells were purchased from The Missouri S&T cDNA Resource Center (#CEM100TN00). M1R-CHOk1 cells were grown in Ham’s F12 Medium (ThermoFisher #21765029) supplemented with 10% fetal bovine serum (Brazilian origin, ThermoFisher #10270106), 100 units/mL Penicillin-Streptomycin, and 0.25 mg/mL Geneticin. HEK293A cells transiently transfected with GPR139 were used for additional pharmacological assessment of signaling pathways activated by GPR139. HEK239A cells were generously provided by Dr. Asuka Inoue, Tohoku University, Japan. HEK293A cells were grown in Dulbecco’s Modified Eagle Medium (ThermoFisher #31966047) supplemented with 10% dialyzed fetal bovine serum and 100 units/mL Penicillin-Streptomycin. Cell lines were maintained at 37 °C in humidified incubator equilibrated with 5% CO2.
HTRF IP-One Gq kit (Cisbio #62IPAPEC) was used to detect the accumulation of inositol monophosphate (IP1) as described in the work by Shehata et al.[26]. GPR139-CHOk1 cells were dissociated and resuspended in HEPES buffer. 50,000 cells in 5 µL and 5 µL test compounds diluted from DMSO stocks (final DMSO concentration of maximally 0.3%) in HEPES buffer supplemented with 40 mM LiCl were mixed in each well of white 384-well OptiPlate (PerkinElmer #6007290). The cells were incubated for 1 h at 37 °C. Then, 10 µL detection reagent composed of 2.5% Eu3 + -anti-IP1 antibody and 2.5% IP1-d2 diluted in lysis buffer was added, and the cells were incubated for 1 h at room temperature before measurements. Measurements were performed on EnVision Multimode Plate Reader (PerkinElmer) using excitation light of 340 nm and emission light of 615 nm and 665 nm. The time resolved-fluorescence resonance energy transfer (TR-FRET) 665 nm/615 nm ratio, which is inversely proportional to the IP1 accumulation, was used to determine the IP1 response.
Pharmacological data and statistical analyses were performed in GraphPad Prism v9–10 (Graphpad Software Inc., San Diego, CA), which are also specifically described in the figure and table legends. The functional assay responses were normalized to buffer (0%) and Lundbeck Cmp 1a or JNJ-63533054 (100%), for Ca^2+ and IP1 experiments in the GPR139-CHOk1 stable cell line or Ca^2+, G protein activation, and arrestin-3 recruitment experiments in the HEK293A cells transiently transfected with GPR139, respectively. Data are from at least three independent experiments, unless stated otherwise. Concentration-response curves were fitted applying non-linear regression using the log (agonist) versus response model with variable slope. ANOVA was applied for comparing results and determining statistical significance. Comparison of responses to the reference was performed using one-way ANOVA with Dunnett’s multiple comparisons test at significance threshold of p < 0.05. Comparison of responses across assays and ligands was performed using two-way ANOVA with Tukey’s multiple comparisons test at a significance threshold of p < 0.05.

[3] = individual replicates (Supplementary Figure 4)
[4] = Supplementary Table 2, mean ± SEM, read-out: pEC50 IP1 (converted)
[5] = Supplementary Table 2, read-out: Emax (%) IP1
[6] = log [compound] M -4.5, individual replicates
[7] = log [compound] M -5.0, individual replicates
[8] = log [compound] M -5.5, individual replicates
[9] = log [compound] M -6.0, individual replicates
[10] = log [compound] M -6.5, individual replicates
[11] = log [compound] M -7.0, individual replicates
[12] = log [compound] M -7.5, individual replicates
[13] = log [compound] M -8.0, individual replicates
[14] = log [Compound] M -4.5, replicate experiments
[15] = log [Compound] M -5.0, replicate experiments
[16] = log [Compound] M -5.5, replicate experiments
[17] = log [Compound] M -6.0, replicate experiments
[18] = log [Compound] M -6.5, replicate experiments
[19] = log [Compound] M -7.0, replicate experiments
[20] = log [Compound] M -7.5, replicate experiments
[21] = log [Compound] M -8.0, replicate experiments

Row | Structure (SMILES) | Ca2+ signal (% of Cmp 1a) (GPR139 [1]; [3]) | EC50 (GPR139 [2]; [4]) | Emax (GPR139 [2]; [5]) | IP1 response (% of Cmp 1a) (GPR139 [2]; [6]) | IP1 response (% of Cmp 1a) (GPR139 [2]; [7]) | IP1 response (% of Cmp 1a) (GPR139 [2]; [8]) | IP1 response (% of Cmp 1a) (GPR139 [2]; [9]) | IP1 response (% of Cmp 1a) (GPR139 [2]; [10]) | IP1 response (% of Cmp 1a) (GPR139 [2]; [11]) | IP1 response (% of Cmp 1a) (GPR139 [2]; [12]) | IP1 response (% of Cmp 1a) (GPR139 [2]; [13]) | IP1 response (% of Cmp 1a) (GPR139 [2]; [14]) | IP1 response (% of Cmp 1a) (GPR139 [2]; [15]) | IP1 response (% of Cmp 1a) (GPR139 [2]; [16]) | IP1 response (% of Cmp 1a) (GPR139 [2]; [17]) | IP1 response (% of Cmp 1a) (GPR139 [2]; [18]) | IP1 response (% of Cmp 1a) (GPR139 [2]; [19]) | IP1 response (% of Cmp 1a) (GPR139 [2]; [20]) | IP1 response (% of Cmp 1a) (GPR139 [2]; [21]) | other results
1 | COc1ccccc1-c1nc(CC(=O)NC(C)c2ccccc2)no1 (centres unmarked) [Compound 1.2, COC1=C(C2=NC(CC(NC(C3=CC=CC=C3)C)=O)=NO2)C=CC=C1] | 2 % of Cmp 1a and 4 % of Cmp 1a and 3.33 % of Cmp 1a | 501 nM | 100 ± 9% | 124 % of Cmp 1a and 88 % of Cmp 1a and 75 % of Cmp 1a and 93 % of Cmp 1a | 116 % of Cmp 1a and 87 % of Cmp 1a and 73 % of Cmp 1a and 117 % of Cmp 1a | 100 % of Cmp 1a and 64 % of Cmp 1a and 57 % of Cmp 1a and 96 % of Cmp 1a | 93 % of Cmp 1a and 47 % of Cmp 1a (2×) and 64 % of Cmp 1a | 57 % of Cmp 1a and 45 % of Cmp 1a and 31 % of Cmp 1a and 51 % of Cmp 1a | 15 % of Cmp 1a and 18 % of Cmp 1a and 6 % of Cmp 1a and 14 % of Cmp 1a | 15 % of Cmp 1a and 11 % of Cmp 1a and -2 % of Cmp 1a and 7.38 % of Cmp 1a | 2 % of Cmp 1a and -5.58 % of Cmp 1a and -11 % of Cmp 1a and 6.5 % of Cmp 1a | – | – | – | – | – | – | – | – | –
2 | Cc1cc(-c2nc(CC(=O)NC(C)c3ccccc3)no2)n(C)n1 (centres unmarked) [Compound 1.16, CC(C1=CC=CC=C1)NC(CC2=NOC(C3=CC(C)=NN3C)=N2)=O] | 5 % of Cmp 1a and 13 % of Cmp 1a and -4.67 % of Cmp 1a | 2510 nM | 118 ± 5% | 95 % of Cmp 1a and 98 % of Cmp 1a and 122 % of Cmp 1a and 128 % of Cmp 1a | 115 % of Cmp 1a and 88 % of Cmp 1a and 90 % of Cmp 1a and 87 % of Cmp 1a | 53 % of Cmp 1a and 54 % of Cmp 1a and 79 % of Cmp 1a and 67 % of Cmp 1a | 44 % of Cmp 1a and 38 % of Cmp 1a (2×) and 47 % of Cmp 1a | 8 % of Cmp 1a and 17 % of Cmp 1a and 10 % of Cmp 1a and 15 % of Cmp 1a | -3.74 % of Cmp 1a and -1.83 % of Cmp 1a and 5.46 % of Cmp 1a and 8 % of Cmp 1a | -0.538 % of Cmp 1a and 1 % of Cmp 1a and -0.216 % of Cmp 1a and 6 % of Cmp 1a | -11 % of Cmp 1a and -1 % of Cmp 1a and 0.939 % of Cmp 1a and 0.124 % of Cmp 1a | – | – | – | – | – | – | – | – | –
3 | Cc1noc(CNC(=O)C2(C)CCCCN2C(=O)c2ccccc2)n1 (centres unmarked) [Compound 4, CC1=NOC(CNC(=O)C2(C)CCCCN2C(=O)C=3C=CC=CC3)=N1] | – | – | – | – | – | – | – | – | – | – | – | 109 % of Cmp 1a and 91 % of Cmp 1a and 86 % of Cmp 1a | 40 % of Cmp 1a and 36 % of Cmp 1a and 37 % of Cmp 1a | 13 % of Cmp 1a and 11 % of Cmp 1a and 14 % of Cmp 1a | 6.46 % of Cmp 1a and 2.74 % of Cmp 1a and 2.36 % of Cmp 1a | -0.931 % of Cmp 1a and -1.18 % of Cmp 1a and 0.0496 % of Cmp 1a | 3.23 % of Cmp 1a and -0.893 % of Cmp 1a and -2.41 % of Cmp 1a | 2.42 % of Cmp 1a and -4 % of Cmp 1a and -2.57 % of Cmp 1a | 1.1 % of Cmp 1a and -0.196 % of Cmp 1a and -1.07 % of Cmp 1a | Ca2+ signal (% of Cmp 1a) (GPR139 [1]; individual replicates (Supplementary Figure 1)): 35.6047 % of Cmp 1a and 34.6013 % of Cmp 1a and 39.6569 % of Cmp 1a; EC50 (GPR139 [2]; read-out: pEC50 IP1 (converted)): 12600 nM
4 | COc1cc(-c2nc(CC(=O)NC(C)c3ccccc3)no2)ccn1 (centres unmarked) [Compound 1.7, COC1=NC=CC(C2=NC(CC(NC(C3=CC=CC=C3)C)=O)=NO2)=C1] | -1.33 % of Cmp 1a and 38 % of Cmp 1a and -9 % of Cmp 1a | 1580 nM | 117 ± 14% | 142 % of Cmp 1a and 109 % of Cmp 1a and 76 % of Cmp 1a and 127 % of Cmp 1a | 138 % of Cmp 1a and 94 % of Cmp 1a and 74 % of Cmp 1a and 127 % of Cmp 1a | 84 % of Cmp 1a and 64 % of Cmp 1a and 60 % of Cmp 1a and 90 % of Cmp 1a | 57 % of Cmp 1a and 49 % of Cmp 1a and 36 % of Cmp 1a and 61 % of Cmp 1a | 27 % of Cmp 1a and 9 % of Cmp 1a and 14 % of Cmp 1a and 24 % of Cmp 1a | 16 % of Cmp 1a and 1.76 % of Cmp 1a and 0.565 % of Cmp 1a and 7 % of Cmp 1a | 8 % of Cmp 1a and -3 % of Cmp 1a and 0.446 % of Cmp 1a and 6 % of Cmp 1a | 7 % of Cmp 1a and -5.45 % of Cmp 1a and -4.55 % of Cmp 1a and 1 % of Cmp 1a | – | – | – | – | – | – | – | – | –
5 | CC(NC(=O)CNC(=O)c1cccc(Cl)c1)c1ccccc1 (centres unmarked) [JNJ-63533054, reference compound] | – | – | – | – | – | – | – | – | – | – | – | 132 % of Cmp 1a and 117 % of Cmp 1a and 179 % of Cmp 1a and 200 % of Cmp 1a | 149 % of Cmp 1a and 120 % of Cmp 1a and 161 % of Cmp 1a and 172 % of Cmp 1a | 112 % of Cmp 1a and 93 % of Cmp 1a and 135 % of Cmp 1a and 165 % of Cmp 1a | 129 % of Cmp 1a and 86 % of Cmp 1a and 138 % of Cmp 1a and 168 % of Cmp 1a | 93 % of Cmp 1a (2×) and 74 % of Cmp 1a and 97 % of Cmp 1a | 56 % of Cmp 1a and 47 % of Cmp 1a and 72 % of Cmp 1a and 84 % of Cmp 1a | 40 % of Cmp 1a and 23 % of Cmp 1a and 36 % of Cmp 1a and 37 % of Cmp 1a | 24 % of Cmp 1a and 9 % of Cmp 1a and 8 % of Cmp 1a and 2 % of Cmp 1a | Emax (GPR139 [2]; Supplementary Table 4, read-out: Emax (%), IP1 accumulation): 157 ± 16%; EC50 (GPR139 [2]; Supplementary Table 4, read-out: pEC50, IP1 accumulation (converted)): 200 nM
